# Results published in paper PMC5430962, “Retro-inverso Urokinase Receptor Antagonists for the Treatment of Metastatic Sarcomas” (Scientific Reports, 2017).
# [ ]: non-standard residue; d: D form. Aib = CC(C)(N)C(=O)O
# Legend:
# HT1080 cells [1] = test: HT1080 matrigel invasion toward 10% FBS in Boyden chambers; type: cell-based, human; conditions: 10 nM peptide plus 10% FBS, 6 hr, means of three independent experiments in triplicate
# Protocol: Cell migration in Boyden chambers was carried out for 4 hr at 37 °C in humidified air with 5% CO2, as described. Briefly, cell suspension (1 × 10^5 viable cells/mL serum free medium) was seeded in each upper chamber. Lower chambers were filled with DMEM alone, DMEM containing RI peptides, 10 nM fMLF, or 10% FBS with/without RI peptides. The two compartments were separated by 8 μm pore size polycarbonate filters (Neuroprobe) coated with 2.5 µg/mL vitronectin (Corning). For the invasion assays, 8 μm pore size filters were coated with 50 μg/filter matrigel (BD Biosciences) as previously described[40] and cells (3 × 10^4 viable cells/well) were allowed to invade matrigel for 6 hr at 37 °C, 5% CO2. In all cases, at the end of the assay, cells on the lower filter surface were fixed with ethanol, stained with haematoxylin and 10 random fields/filter were counted at 200× magnification. Each experiment was performed three times in triplicate.
# HT1080 cells [2] = test: Matrigel invasion kinetics, xCELLigence RTCA, HT1080; type: cell-based, human
# Protocol: (§1) This assay was performed using E-well plates and the xCELLigence RTCA technology as described. Bottom wells were coated with 20 µg/well matrigel diluted in serum free medium. Matrigel was allowed to polymerize for 1 hr at 37 °C prior to seeding cells (1 × 10^4 cells/well) suspended in growth medium plus/minus RI peptides. Cells that cross matrigel adhere to the bottom of plates causing impedance changes that are proportional to the number of invading cells, and are expressed as a cell index value. Matrigel invasion was monitored for 20 hr. The experiments were performed three times in quadruplicate.
# [3] = system: chondrosarcoma Sarc cells; test: Matrigel invasion kinetics, xCELLigence RTCA, Sarc; type: cell-based, human; conditions: 10 nM, 10% FBS, 20 hr
# Protocol: as §1
# [4] = Stability in bovine serum, read out as inhibition of HT1080 migration (xCELLigence); type: in vitro ADME; conditions: pre-incubated at 10^−3 M in bovine serum 18 hr at 37 °C, tested at 10 nM on HT1080 migration 18 hr, quadruplicate
# Protocol: A major limitation of peptides for use as therapeutics is susceptibility to degradation by serum proteases. The stability of RI-3 in bovine and human serum was investigated by comparing inhibitory activities of RI-3 and RI-3 pre-incubated at 10^−3 M with serum for 18 hr at 37 °C on cell migration and invasion. HT1080 cells were allowed to migrate for 18 hr toward DMEM (CTRL), 10% FBS (None), 10% FBS plus 10 nM RI-3 or 10% FBS with 10 nM RI-3 pre-incubated in bovine serum. […] The stability of RI-3 in human serum was investigated in cell invasion experiments performed in Boyden chambers. […]
# (a) HT1080 cells were allowed to migrate in real time for 18 hr toward DMEM (CTRL), or 10% FBS in the absence (None) or the presence of 10 nM RI-3 or 10 nM RI-3 pre-incubated at 10^−3 M in bovine serum for 18 hr at 37 °C. […] The basal value assessed in the absence of FBS (CTRL) was taken as 100% and all values were reported relative to that. Data are the means ± SD three independent experiments, performed in triplicate. *Indicates statistical significance calculated against None, with *P < 0.05, **P < 0.0001. (c) Cell proliferation of HT1080 cells assessed by MTS assay. […] At the indicated times, the absorbance of adherent cells was assessed with a microplate reader. […]
# HUVECs = test: Endothelial cell tube formation on matrigel; type: cell-based, human; conditions: 10 nM, three experiments in duplicate
# Protocol: The formation of vascular-like structures was assessed on a matrigel basement membrane matrix preparation. HUVEC (4 × 10^4 cells/well) were suspended in 300 µl pre-warmed serum-free medium. Diluents or effectors were added to the cell suspension prior to seeding cells on polymerized growth factor-reduced matrigel (100 µl/well) (Becton Dickinson). Assays were carried out for 6 hr at 37 °C in humidified air with 5% CO2 as described. To quantify tube formation, five random areas/well at 100× magnification were imaged and the number of tubes formed by cord-like structures exceeding 100 μm in length, measured using Axiovision 4.4 software (Carl Zeiss), were counted. The experiments were performed three times in duplicate.
# [5] = system: Sarc cells crossing HUVEC monolayer; test: Trans-endothelial migration of Sarc cells, xCELLigence RTCA; type: cell-based, human; conditions: 10 nM, EBM-10% FBS, slopes in a 25–35 hr time frame
# Protocol: Trans-endothelial migration assays were performed using the xCELLigence RTCA technology as described. Briefly, HUVECs (1 × 10^4 cells/well) suspended in growth medium, were seeded in E-plates and allowed to grow for ~25 hr, until they form a confluent monolayer, prior to seeding Sarc cells (1 × 10^4 cells/well) in growth medium plus/minus 10 nM RI-3. When HUVECs are challenged with crossing cells, there is a drop in electrical resistance that is monitored in real-time as cell index changes due to the rupture of the endothelial monolayer. The experiment was performed twice in quadruplicate.
substance,measurement,setting,value
Ac-[dY][dR][Aib][dR]-NH2 (SMILES CC(=O)N[C@H](Cc1ccc(O)cc1)C(=O)N[C@H](CCCNC(=N)N)C(=O)NC(C)(C)C(=O)N[C@H](CCCNC(=N)N)C(N)=O) [RI-3],reduction of the extent of cell invasion (matrigel),HT1080 cells [1],51%
same,reduction of matrigel invasion (slope of cell index),"HT1080 cells [2]; HT1080, 10 nM, 10% FBS, 20 hr",64%
same,IC50,"HT1080 cells [2]; increasing concentrations plus 10% FBS, matrigel invasion 20 hr, xCELLigence, read-out: concentration at which an overall 50% reduction of cell invasion was reached",0.01 nM
same,reduction of matrigel invasion (slope of cell index),[3],47%
same,"cell index curves of migrating cells, peptide vs peptide pre-incubated in bovine serum",[4],overlapping curves
same,reduction of VEGF-dependent endothelial capillary-like structures,"HUVECs; EBM plus 40 ng/mL VEGF165, 6 hr on matrigel",75%
same,reduction of FBS-dependent endothelial capillary-like structures,"HUVECs; EBM plus 10% FBS, 6 hr on matrigel",61%
same,reduction of the capability of Sarc cells to disrupt endothelial monolayers,[5],24%
